Drawing on ChEMBL document CHEMBL5465560, “Selectivity Literature for EUbOPEN Chemogenomic Library” (2024), this text covers % of control for two compounds.

For test [1], the target named is Ephrin type-A receptor 7 (Homo sapiens) (UniProt Q15375). Description: Selectivity interaction (KinomeScan (DiscoverX)) EUB0000607a EPHA7. The following applies: at 10 µM.
In test [2] the test system is T1, Receptor-type tyrosine-protein kinase FLT3 (Homo sapiens), P36888 [K663Q].
T1 sequence (whole entry): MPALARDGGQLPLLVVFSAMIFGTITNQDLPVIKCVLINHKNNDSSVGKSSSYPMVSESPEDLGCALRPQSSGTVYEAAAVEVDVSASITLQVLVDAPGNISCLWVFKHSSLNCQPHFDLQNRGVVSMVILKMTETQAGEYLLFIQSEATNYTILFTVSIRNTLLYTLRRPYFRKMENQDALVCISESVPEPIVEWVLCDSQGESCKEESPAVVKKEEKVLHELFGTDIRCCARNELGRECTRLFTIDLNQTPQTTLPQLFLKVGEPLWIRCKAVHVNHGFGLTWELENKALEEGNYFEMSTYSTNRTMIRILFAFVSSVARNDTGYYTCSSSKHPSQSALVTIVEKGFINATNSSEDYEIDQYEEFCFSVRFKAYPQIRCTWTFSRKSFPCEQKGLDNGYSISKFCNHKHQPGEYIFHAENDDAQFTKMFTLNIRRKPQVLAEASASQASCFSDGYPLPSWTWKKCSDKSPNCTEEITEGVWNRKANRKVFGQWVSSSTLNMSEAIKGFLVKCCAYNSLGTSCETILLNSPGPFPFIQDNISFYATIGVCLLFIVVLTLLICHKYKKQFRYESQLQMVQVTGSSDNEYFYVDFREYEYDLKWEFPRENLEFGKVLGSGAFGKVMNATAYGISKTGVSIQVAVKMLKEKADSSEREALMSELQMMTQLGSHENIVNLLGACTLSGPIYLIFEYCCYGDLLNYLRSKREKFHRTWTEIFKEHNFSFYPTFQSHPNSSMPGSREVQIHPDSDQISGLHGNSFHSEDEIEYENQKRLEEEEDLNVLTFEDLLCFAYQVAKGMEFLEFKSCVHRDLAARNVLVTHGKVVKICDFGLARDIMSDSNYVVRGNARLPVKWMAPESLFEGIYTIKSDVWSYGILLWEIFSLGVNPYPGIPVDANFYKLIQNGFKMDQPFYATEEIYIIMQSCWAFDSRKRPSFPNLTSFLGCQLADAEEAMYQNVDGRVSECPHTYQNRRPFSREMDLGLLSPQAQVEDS
As to the kind of experiment: (§1) Selectivity interaction (KinomeScan (DiscoverX)) EUB0000695a FLT3. The note with it: at 100 nM.

Test [3] has as its system T2, Receptor-type tyrosine-protein kinase FLT3 (Homo sapiens), P36888 [D835V].
T2 sequence (whole entry): T1 sequence (whole entry) with Q663K, D835V
The description is as §1. The note with it: at 100 nM.

The target in test [4] is Receptor-type tyrosine-protein kinase FLT3 (Homo sapiens) (UniProt P36888). The test is described as §1. The following applies: at 100 nM.
Test [5] relates to T3, Receptor-type tyrosine-protein kinase FLT3 (Homo sapiens), P36888 [R834Q].
T3 sequence (whole entry): T1 sequence (whole entry) with Q663K, R834Q
Described as §1. The following applies: at 100 nM.

Molecules are shown by their SMILES. Where a chain is given by its changes, count along the chain named.

Chain of Ephrin type-A receptor 7 (Homo sapiens) (Q15375 28-998 limits assumed): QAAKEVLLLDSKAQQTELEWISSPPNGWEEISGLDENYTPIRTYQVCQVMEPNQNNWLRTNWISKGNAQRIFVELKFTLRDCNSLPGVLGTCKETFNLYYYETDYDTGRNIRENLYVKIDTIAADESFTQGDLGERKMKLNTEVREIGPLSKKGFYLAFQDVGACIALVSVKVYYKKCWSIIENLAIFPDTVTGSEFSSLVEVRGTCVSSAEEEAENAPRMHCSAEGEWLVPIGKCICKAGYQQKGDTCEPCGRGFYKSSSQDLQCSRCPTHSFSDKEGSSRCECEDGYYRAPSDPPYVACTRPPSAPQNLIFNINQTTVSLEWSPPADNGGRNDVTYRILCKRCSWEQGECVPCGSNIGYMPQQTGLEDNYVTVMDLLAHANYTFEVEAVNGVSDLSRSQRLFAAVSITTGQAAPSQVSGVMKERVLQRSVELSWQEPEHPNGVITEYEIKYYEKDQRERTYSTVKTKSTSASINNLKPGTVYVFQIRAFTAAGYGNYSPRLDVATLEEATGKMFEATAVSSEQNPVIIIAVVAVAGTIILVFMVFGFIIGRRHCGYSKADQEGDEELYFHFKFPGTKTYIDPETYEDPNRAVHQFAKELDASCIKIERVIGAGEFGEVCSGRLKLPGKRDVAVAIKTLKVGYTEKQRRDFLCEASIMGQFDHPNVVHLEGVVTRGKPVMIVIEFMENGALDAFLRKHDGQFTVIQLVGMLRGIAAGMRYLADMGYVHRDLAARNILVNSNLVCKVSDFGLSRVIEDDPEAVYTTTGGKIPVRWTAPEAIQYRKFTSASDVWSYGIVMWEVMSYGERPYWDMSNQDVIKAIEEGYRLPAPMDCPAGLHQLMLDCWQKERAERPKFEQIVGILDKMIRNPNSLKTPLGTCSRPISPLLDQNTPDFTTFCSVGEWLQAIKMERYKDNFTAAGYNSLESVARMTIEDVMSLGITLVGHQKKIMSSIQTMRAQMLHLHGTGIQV

In the case of `CNC(=O)Nc1ccc(-c2nc(N3CC4CCC(C3)O4)c3cnn(C4CCC5(CC4)OCCO5)c3n2)cc1`, in test [1], the % of control amounted to 87%.

Take `Cc1cc(F)c(C(=O)Nc2cccc(-c3nncn3C(C)C)n2)cc1-n1cnc(C2CC2)c1`: the % of control came out at 97% in test [2], 100% in test [3], 100% in test [4] and 100% in test [5].
